# In patent US20060172993A1 (priority 2002, published 2006):
# System: Patients diagnosed with Alzheimer's Disease
# Assay: Adverse events / safety monitoring in the trial
# Format: in vivo, human
# Method: Subjects in the Placebo group received 21 weeks (5 months) of placebo medication.
# The safety of the drug was also monitored throughout the study. Blood samples for biochemistry and haematology and random urine sample for urinalysis were taken at each visit and at completion for all efficacy testing. Systolic and diastolic blood pressure were measured in the sitting position, pulse and vital signs were recorded at each visit.
smiles,measurement,setting,value
"COc1ccc2c3c1O[C@H]1C[C@@H](O)C=C[C@@]31CCN(C)C2 [GAL, galantamine]","Adverse event Agitation, % of patients",8 mg/day,(15.0%)
same,"Adverse event Agitation, number of patients",8 mg/day,21
same,"Adverse event Anorexia, % of patients",8 mg/day,(5.7%)
same,"Adverse event Anorexia, number of patients",8 mg/day,8
same,"Adverse event Depression, % of patients",8 mg/day,(2.9%)
same,"Adverse event Depression, number of patients",8 mg/day,4
same,"Adverse event Diarrhea, % of patients",8 mg/day,(5.0%)
same,"Adverse event Diarrhea, number of patients",8 mg/day,7
same,"Adverse event Dizziness, % of patients",8 mg/day,(5.0%)
same,"Adverse event Dizziness, number of patients",8 mg/day,7
same,"Adverse event Dyspepsia, % of patients",8 mg/day,(2.9%)
same,"Adverse event Dyspepsia, number of patients",8 mg/day,4
same,"Adverse event Edema peripheral, % of patients",8 mg/day,(6.4%)
same,"Adverse event Edema peripheral, number of patients",8 mg/day,9
same,"Adverse event Fall, % of patients",8 mg/day,(7.9%)
same,"Adverse event Fall, number of patients",8 mg/day,11
same,"Adverse event Headache, % of patients",8 mg/day,(3.6%)
same,"Adverse event Headache, number of patients",8 mg/day,5
same,"Adverse event Injury, % of patients",8 mg/day,(3.6%)
same,"Adverse event Injury, number of patients",8 mg/day,5
same,"Adverse event Nausea, % of patients",8 mg/day,(5.7%)
same,"Adverse event Nausea, number of patients",8 mg/day,8
same,"Adverse event Rhinitis, % of patients",8 mg/day,(6.4%)
same,"Adverse event Rhinitis, number of patients",8 mg/day,9
same,"Adverse event Urinary tract infection, % of patients",8 mg/day,(7.9%)
same,"Adverse event Urinary tract infection, number of patients",8 mg/day,11
same,"Adverse event Vomiting, % of patients",8 mg/day,(3.6%)
same,"Adverse event Vomiting, number of patients",8 mg/day,5
same,"Adverse event Weight decrease, % of patients",8 mg/day,(1.4%)
same,"Adverse event Weight decrease, number of patients",8 mg/day,2
same,"Adverse event of clinical interest Bradycardia, % of patients",8 mg/day,(3.6%)
same,"Adverse event of clinical interest Bradycardia, number of patients",8 mg/day,5
same,"Adverse event of clinical interest Convulsions, number of patients",8 mg/day,0
same,"Adverse event of clinical interest Fatigue, % of patients",8 mg/day,(2.1%)
same,"Adverse event of clinical interest Fatigue, number of patients",8 mg/day,3
same,"Adverse event of clinical interest Muscle weakness, % of patients",8 mg/day,(0.7%)
same,"Adverse event of clinical interest Muscle weakness, number of patients",8 mg/day,1
same,"Adverse event of clinical interest Syncope, % of patients",8 mg/day,(1.4%)
same,"Adverse event of clinical interest Syncope, number of patients",8 mg/day,2
same,"Serious adverse event Abdominal pain, % of patients",8 mg/day,(0.0%)
same,"Serious adverse event Abdominal pain, number of patients",8 mg/day,0
same,"Serious adverse event Agitation, % of patients",8 mg/day,(1.4%)
same,"Serious adverse event Agitation, number of patients",8 mg/day,2
same,"Serious adverse event Asthenia, % of patients",8 mg/day,(0.0%)
same,"Serious adverse event Asthenia, number of patients",8 mg/day,0
same,"Serious adverse event Basal cell carcinoma, % of patients",8 mg/day,(0.0%)
same,"Serious adverse event Basal cell carcinoma, number of patients",8 mg/day,0
same,"Serious adverse event Breast neoplasm female, % of patients",8 mg/day,(0.0%)
same,"Serious adverse event Breast neoplasm female, number of patients",8 mg/day,0
same,"Serious adverse event Cardiac failure, % of patients",8 mg/day,(0.0%)
same,"Serious adverse event Cardiac failure, number of patients",8 mg/day,0
same,"Serious adverse event Dehydration, % of patients",8 mg/day,(0.0%)
same,"Serious adverse event Dehydration, number of patients",8 mg/day,0
same,"Serious adverse event Diarrhea, % of patients",8 mg/day,(0.0%)
same,"Serious adverse event Diarrhea, number of patients",8 mg/day,0
same,"Serious adverse event Dyspnea, % of patients",8 mg/day,(0.0%)
same,"Serious adverse event Dyspnea, number of patients",8 mg/day,0
same,"Serious adverse event Fall, % of patients",8 mg/day,(2.9%)
same,"Serious adverse event Fall, number of patients",8 mg/day,4
same,"Serious adverse event Gi haemorrhage, % of patients",8 mg/day,(0.0%)
same,"Serious adverse event Gi haemorrhage, number of patients",8 mg/day,0
same,"Serious adverse event Injury, % of patients",8 mg/day,(0.7%)
same,"Serious adverse event Injury, number of patients",8 mg/day,1
same,"Serious adverse event Myocardial infarction, % of patients",8 mg/day,(2.1%)
same,"Serious adverse event Myocardial infarction, number of patients",8 mg/day,3
same,"Serious adverse event Nausea, % of patients",8 mg/day,(0.0%)
same,"Serious adverse event Nausea, number of patients",8 mg/day,0
same,"Serious adverse event Pneumonia, % of patients",8 mg/day,(0.7%)
same,"Serious adverse event Pneumonia, number of patients",8 mg/day,1
same,"Serious adverse event Sepsis, % of patients",8 mg/day,(0.0%)
same,"Serious adverse event Sepsis, number of patients",8 mg/day,0
same,"Serious adverse event Surgical intervention, % of patients",8 mg/day,(0.0%)
same,"Serious adverse event Surgical intervention, number of patients",8 mg/day,0
same,"Serious adverse event Syncope, % of patients",8 mg/day,(0.7%)
same,"Serious adverse event Syncope, number of patients",8 mg/day,1
same,"Serious adverse event Thrombophlebitis deep, % of patients",8 mg/day,(0.0%)
same,"Serious adverse event Thrombophlebitis deep, number of patients",8 mg/day,0
same,"Serious adverse event Transient ischemic attack, % of patients",8 mg/day,(0.7%)
same,"Serious adverse event Transient ischemic attack, number of patients",8 mg/day,1
same,"Serious adverse event Urinary tract infection, % of patients",8 mg/day,(0.7%)
same,"Serious adverse event Urinary tract infection, number of patients",8 mg/day,1
same,"Serious adverse event Vomiting, % of patients",8 mg/day,(0.0%)
same,"Serious adverse event Vomiting, number of patients",8 mg/day,0
same,"Total patients with any SAE, %",8 mg/day,(10.0%)
same,"Total patients with any SAE, number",8 mg/day,14
same,"Adverse event Agitation, % of patients",16 mg/day,(10.0%)
same,"Adverse event Agitation, number of patients",16 mg/day,28
same,"Adverse event Anorexia, % of patients",16 mg/day,(6.5%)
same,"Adverse event Anorexia, number of patients",16 mg/day,18
same,"Adverse event Depression, % of patients",16 mg/day,(8.6%)
same,"Adverse event Depression, number of patients",16 mg/day,24
same,"Adverse event Diarrhea, % of patients",16 mg/day,(12.2%)
same,"Adverse event Diarrhea, number of patients",16 mg/day,34
same,"Adverse event Dizziness, % of patients",16 mg/day,(5.4%)
same,"Adverse event Dizziness, number of patients",16 mg/day,15
same,"Adverse event Dyspepsia, % of patients",16 mg/day,(4.7%)
same,"Adverse event Dyspepsia, number of patients",16 mg/day,13
same,"Adverse event Edema peripheral, % of patients",16 mg/day,(2.9%)
same,"Adverse event Edema peripheral, number of patients",16 mg/day,8
same,"Adverse event Fall, % of patients",16 mg/day,(5.05%)
same,"Adverse event Fall, number of patients",16 mg/day,14
same,"Adverse event Headache, % of patients",16 mg/day,(6.8%)
same,"Adverse event Headache, number of patients",16 mg/day,19
same,"Adverse event Injury, % of patients",16 mg/day,(4.3%)
same,"Adverse event Injury, number of patients",16 mg/day,12
same,"Adverse event Nausea, % of patients",16 mg/day,(13.3%)
same,"Adverse event Nausea, number of patients",16 mg/day,37
same,"Adverse event Rhinitis, % of patients",16 mg/day,(3.2%)
same,"Adverse event Rhinitis, number of patients",16 mg/day,9
same,"Adverse event Urinary tract infection, % of patients",16 mg/day,(8.2%)
same,"Adverse event Urinary tract infection, number of patients",16 mg/day,23
same,"Adverse event Vomiting, % of patients",16 mg/day,(6.1%)
same,"Adverse event Vomiting, number of patients",16 mg/day,17
same,"Adverse event Weight decrease, % of patients",16 mg/day,(5.4%)
same,"Adverse event Weight decrease, number of patients",16 mg/day,15
same,"Adverse event of clinical interest Bradycardia, % of patients",16 mg/day,(2.5%)
same,"Adverse event of clinical interest Bradycardia, number of patients",16 mg/day,7
same,"Adverse event of clinical interest Convulsions, number of patients",16 mg/day,0
same,"Adverse event of clinical interest Fatigue, % of patients",16 mg/day,(3.6%)
same,"Adverse event of clinical interest Fatigue, number of patients",16 mg/day,10
same,"Adverse event of clinical interest Muscle weakness, % of patients",16 mg/day,(1.1%)
same,"Adverse event of clinical interest Muscle weakness, number of patients",16 mg/day,3
same,"Adverse event of clinical interest Syncope, % of patients",16 mg/day,(1.8%)
same,"Adverse event of clinical interest Syncope, number of patients",16 mg/day,5
same,"Serious adverse event Abdominal pain, % of patients",16 mg/day,(0.7%)
same,"Serious adverse event Abdominal pain, number of patients",16 mg/day,2
same,"Serious adverse event Agitation, % of patients",16 mg/day,(0.4%)
same,"Serious adverse event Agitation, number of patients",16 mg/day,1
same,"Serious adverse event Asthenia, % of patients",16 mg/day,(0.7%)
same,"Serious adverse event Asthenia, number of patients",16 mg/day,2
